Reference: patent US20230312605A1, “PYRROLO[2,1-F][1,2,4]TRIAZINES AND PREPARATION AND USES THEREOF” (BioSplice Therapeutics, Inc., priority 2021, published 2023)

How the values were obtained:
[1] = target: recombinant DYRK1A kinase (Homo sapiens (Human), UniProt Q13627); assay: DYRK1A kinase assay (Ser/Thr 18 peptide Z-lyte FRET assay); type: biochemical; conditions: recombinant DYRK1A 0.25 µg/mL, ATP 15 µM, Ser/Thr peptide 18 4 µM, one hour at room temperature; table head prints EC50, method says IC50
Procedure, shortened: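 Recombinant human DYRK1A (0.25 µg/mL) with 15 µM ATP and 4 µM Ser/Thr 18 peptide was incubated 1 h at room temperature with compound (11-point, 10 µM top), in duplicate. Z-lyte FRET read-out (coumarin/fluorescein emission ratio) was converted to percent phosphorylation; IC50 from non-linear regression.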

[2] = tested on: Tau phosphorylation at Thr212 (pThr212) in HEK293T cells transfected with DYRK1A and MAPT; assay: phosphoTau (Thr212) AlphaLISA tau phosphorylation cell assay; type: cell-based; conditions: HEK-293T, HEK293T cells transiently transfected with human DYRK1A and MAPT, compound treatment 18-24 hours, read-out: pTau (Thr212) EC50
Protocol: Representative compounds were screened using the assay procedure for tau phosphorylation activity described below.
HEK293T cells (ATCC, CRL3216) cultured in DMEM (Thermo Fisher Scientific, 10566024) supplemented with 10% FBS (Corning, 35-011-CV) and Penicillin/Streptomycin (Thermo Fisher Scientific, 15140163) were seeded in a 75 cm^2 flask at 8.1 × 10^6 cells/flask. The HEK293T cells were then transiently transfected with 5 µg DYRK1A (NM_001396) human untagged clone (OriGene, SC314641) and 2.5 µg MAPT (441 a.a. Tau gene) (NM_005910) human untagged clone (OriGene, TP313312) using Lipofectamine 3000 (Thermo Fisher Scientific, L30000015) and incubated for 20-30 hours in a humidified incubator at 37° C. and 5% CO^2. Post-incubation, HEK293T cells transfected with the DYRK1A and MAPT expression vectors were harvested and seeded in BioCoat poly-D lysine coated 96-well plates (Corning, 354461) at 3 × 10^4 cells/well.
The above synthesized compounds were screened using the cell assay procedure to assess decreased Tau phosphorylation at Thr212 (pThr212) described below.
Each compound was dissolved in DMSO (Sigma-Aldrich, D8418-100 mL) as a 10 mM stock. 10 mM stocks were serially diluted 1:3, 10-point dose-response curve and added to the cells with a final concentration ranging from 20 µM to 1.1 nM. Cells were treated with compounds in duplicate and incubated for 18-24 hours in a humidified incubator at 37° C. and 5% CO^2.
Following the overnight compound treatment, cells were lysed with 1X Alpha Surefire Ultra Lysis Buffer (Perkin Elmer, ALSU-LB-100ML) complemented with 1X Halt Phosphatase Inhibitor Cocktail (Thermo Fisher Scientific, 78427) and 1X Halt Protease Inhibitor Cocktail (Thermo Fisher Scientific, 78438). Lysates were spun down at 12,000 g for 10 min to remove any cellular debris and 5 µL of lysates were dispensed into a 384-well Opti-Plate (Perkin Elmer, 6007290) for the measurement of Tau phosphorylation in the phosphoTau (Thr212) AlphaLISA assay. Donor antibody, biotinylated HT7Tau (Thermo Fisher Scientific, MN1000B), and acceptor antibody, pThr212Tau (Thermo Fisher Scientific, 44740G) were both added to the cell lysates at a final concentration of 3 nM and incubated for 1 hour at room temperature. Following incubation of the lysates with the donor and acceptor antibodies, anti-rabbit IgG(Fc specific) AlphaLISA acceptor beads (Perkin Elmer, AL104C) were added at a 10 ug/mL final concentration and incubated for 1 hour at room temperature protected from light. Lastly, AlphaScreen streptavidin donor beads (PerkinElmer, 6760002) were added at 40 ug/mL final concentration and incubated for 1 hour at room temperature protected from light. Plates were read at Ex= […], and Em=615 nm on the EnVision Multilabel Plate Reader (Perkin Elmer)
phospho-Tau (Thr212) AlphaLISA signal was used to plot, draw the curve fitting, and determine each compound’s EC50 in Prism (GraphPad).

SMILES | EC50 [1] | EC50 [2]
c1cnc2cc(-c3ccn4nc(NC5CC6(COC6)C5)ncc34)ccc2n1 [Compound 1418, 5-(Quinoxalin-6-yl)-N-(2-oxaspiro[3.3]heptan-6-yl)pyrrolo[2,1-f][1,2,4] triazin-2-amine] | 11 nM | 212 nM
CO[C@H]1CC[C@@H](Nc2ncc3c(-c4ccc5nccnc5c4)ccn3n2)CC1 [Compound 1395, N-(cis-4-Methoxycyclohexyl)-5-(quinoxalin-6-yl)pyrrolo[2,1-f][1,2,4] triazin-2-amine] | 11 nM | 380 nM
O[C@H]1CC[C@@H](Nc2ncc3c(-c4ccc5nccnc5c4)ccn3n2)CC1 [Compound 1393, cis-4-((5-(Quinoxalin-6-yl)pyrrolo[2,1-f][1,2,4]triazin-2-yl)amino) cyclohexan-1-ol] | 23 nM | 718 nM
C[C@]1(O)CC[C@@H](Nc2ncc3c(-c4ccc5nccnc5c4)ccn3n2)CC1 [Compound 1394, (1s,4s)-1-Methyl-4-((5-(quinoxalin-6-yl)pyrrolo[2,1-f][1,2,4]triazin-2-yl)amino)cyclohexan-1-ol] | 14 nM | 709 nM
CC(C)(F)CNc1ncc2c(-c3ccc4nccn4c3)ccn2n1 [Compound 3, N-(2-Fluoro-2-methylpropyl)-5-(imidazo[1,2-a]pyridin-6-yl)pyrrolo[2,1-f] [1,2,4]triazin-2-amine] | 23 nM | 1840 nM
Cc1nc2ccc(-c3ccn4nc(NC5CCC(F)(F)CC5)ncc34)nc2n1CCF [Compound 1037, N-(4,4-Difluorocyclohexyl)-5-(3-(2-fluoroethyl)-2-methyl-3H-imidazo[4,5-b]pyridin-5-yl)pyrrolo[2,1-f][1,2,4]triazin-2-amine] | 20 nM | 403 nM
CCC(=O)N1CCC(Nc2ncc3c(-c4ccc5nc(C)n(CC(F)F)c5n4)ccn3n2)CC1 [Compound 1858, 1-(4-((5-(3-(2,2-Difluoroethyl)-2-methyl-3H-imidazo[4,5-b]pyridin-5-yl)pyrrolo[2,1-f][1,2,4]triazin-2-yl)amino)piperidin-1-yl)propan-1-one] | 7 nM | 
Cc1nc2ccc(-c3ccn4nc(N[C@H]5CCN(CC(C)C)C[C@H]5F)ncc34)nc2n1CC(F)F [Compound 1909, 5-(3-(2,2-difluoroethyl)-2-methyl-3H-imidazo[4,5-b]pyridin-5-yl)-N-((3R,4S)-3-fluoro-1-isobutylpiperidin-4-yl)pyrrolo[2,1-f][1,2,4]triazin-2-amine] | 5 nM | 
CC(C)OCCNc1ncc2c(-c3ccc4nccn4c3)ccn2n1 [Compound 11, 5-(Imidazo[1,2-a]pyridin-6-yl)-N-(2-isopropoxyethyl)pyrrolo[2,1-f][1,2,4] triazin-2-amine] | 116 nM | 
CN(C)[C@H]1CC[C@@H](Nc2ncc3c(-c4ccc5ncccc5c4)ccn3n2)CC1 [Compound 1336, cis-N^1,N^1-Dimethyl-N^4-(5-(quinolin-6-yl)pyrrolo[2,1-f][1,2,4]triazin-2-yl) cyclohexane-1,4-diamine] | 25 nM | 
Cc1nc2ccc(-c3ccn4nc(N[C@H]5CC[C@@](C)(O)CC5)ncc34)nc2n1CC(F)F [Compound 1110, (1s,4s)-4-((5-(3-(2,2-Difluoroethyl)-2-methyl-3H-imidazo[4,5-b]pyridin-5-yl)pyrrolo[2,1-f][1,2,4]triazin-2-yl)amino)-1-methylcyclohexan-1-ol] | 3 nM | 

Now from value to molecule, other results behind:

EC50 [1] | SMILES | EC50 [2]
11 nM | Cc1nc2ncc(-c3ccn4nc(NCC(C)(C)F)ncc34)cc2n1C(C)C [Compound 571, N-(2-Fluoro-2-methylpropyl)-5-(1-isopropyl-2-methyl-1H-imidazo[4,5-b]pyridin-6-yl)pyrrolo[2,1-f] [1,2,4]triazin-2-amine] | 725 nM
7 nM | CO[C@H]1CC[C@@H](Nc2ncc3c(-c4cnc5nccn5c4)ccn3n2)CC1 [Compound 259, 5-(Imidazo[1,2-a]pyrimidin-6-yl)-N-(cis-4-methoxycyclohexyl)pyrrolo[2,1-f][1,2,4]triazin-2-amine] | 150 nM
8 nM | Cc1nc2ccc(-c3ccn4nc(NC5CCC(F)(F)CC5)ncc34)nc2n1CC(F)F [Compound 1108, N-(4,4-Difluorocyclohexyl)-5-(3-(2,2-difluoroethyl)-2-methyl-3H-imidazo [4,5-b]pyridin-5-yl)pyrrolo[2,1-f][1,2,4]triazin-2-amine] | 126 nM
7 nM | c1cn2cc(-c3ccn4nc(NC5CC6(COC6)C5)ncc34)cnc2n1 [Compound 282, 5-(Imidazo[1,2-a]pyrimidin-6-yl)-N-(2-oxaspiro[3.3]heptan-6-yl)pyrrolo[2,1-f][1,2,4]triazin-2-amine] | 172 nM
11 nM | O[C@H]1C[C@@H](Nc2ncc3c(-c4ccc5nccnc5c4)ccn3n2)C1 [Compound 1724, cis-3-((5-(Quinoxalin-6-yl)pyrrolo [2,1-f] [1,2,4]triazin-2-yl)amino) cyclobutan-1-ol] | 305 nM
12 nM | CC(C)(F)CNc1ncc2c(-c3cnc4nccn4c3)ccn2n1 [Compound 216, N-(2-Fluoro-2-methylpropyl)-5-(imidazo[1,2-a]pyrimidin-6-yl)pyrrolo[2,1-f] [1,2,4]triazin-2-amine] | 455 nM
26 nM | COCCn1c(C)nc2ccc(-c3ccn4nc(NC5CCC(F)(F)CC5)ncc34)nc21 [Compound 1179, N-(4,4-Difluorocyclohexyl)-5-(3-(2-methoxyethyl)-2-methyl-3H-imidazo [4,5-b]pyridin-5-yl)pyrrolo[2,1-f][1,2,4]triazin-2-amine] | 470 nM
4 nM | Cc1nc2ccc(-c3ccn4nc(NCC(C)(C)F)ncc34)nc2n1CC(F)F [Compound 1068, N-(2-Fluoro-2-methylpropyl)-5-(3-(2,2-difluoroethyl)-2-methyl-3H-imidazo[4,5-b]pyridin-5-yl)pyrrolo[2,1-f][1,2,4]triazin-2-amine] | 159 nM
8 nM | Cc1nc2ccc(-c3ccn4nc(N[C@@H]5CCN(C)C[C@H]5F)ncc34)nc2n1CC(F)F [Compound 1854] | 
5 nM | Cc1nc2ccc(-c3ccn4nc(NC5CCOCC5)ncc34)nc2n1CC(F)F [Compound 1132, 5-(3-(2,2-Difluoroethyl)-2-methyl-3H-imidazo[4,5-b]pyridin-5-yl)-N-(tetrahydro-2H-pyran-4-yl)pyrrolo[2,1-f][1,2,4]triazin-2-amine] | 
13 nM | FC(F)(F)CNc1ncc2c(-c3cnc4nccn4c3)ccn2n1 [Compound 218, 5-(Imidazo[1,2-a]pyrimidin-6-yl)-N-(2,2,2-trifluoroethyl)pyrrolo[2,1-f] [1,2,4]triazin-2-amine] | 
9 nM | Cc1nc2ccc(-c3ccn4nc(NC5CCN(CCO)CC5)ncc34)nc2n1CC(F)F [Compound 1852, 2-(4-((5-(3-(2,2-Difluoroethyl)-2-methyl-3H-imidazo[4,5-b]pyridin-5-yl)pyrrolo[2,1-f][1,2,4]triazin-2-yl)amino)piperidin-1-yl)ethan-1-ol] | 
5 nM | Cc1nc2ccc(-c3ccn4nc(N[C@@H]5CN(C)C[C@@H]5F)ncc34)nc2n1CC(F)F [Compound 1900] | 
5 nM | Cc1nc2ccc(-c3ccn4nc(N[C@H]5CC[C@@H](CN6CCOCC6)CC5)ncc34)nc2n1CC(F)F [Compound 1842, 5-(3-(2,2-difluoroethyl)-2-methyl-3H-imidazo[4,5-b]pyridin-5-yl)-N-(cis-4-(morpholinomethyl)cyclohexyl)pyrrolo[2,1-f][1,2,4]triazin-2-amine] | 
